Experiments:
Format in all cases: cell-based
A375 = assay: Cancer cell proliferation inhibition, CCK-8, 72 hours; conditions: Homo sapiens, A-375, 72 h
Procedure: (§1) MTS assay was performed to evaluate the cancer cell proliferation inhibition (cancer cell apoptosis) effect of the compounds of examples of the present invention. Particularly, the assay was performed using the cancer cell lines GIST-T1, GIST-T1/816, GIST-430, GIST-430/654, GIST-R1, GIST-R3, M-NFS-60, RetParental (Ba/F3), Retwt (Ba/F3), RetV804M (Ba/F3), RET (LC2/ad-CDC6), FYN (MCP-1), FYN (FN), MDA-MB-231, Huh7, K562, T315I(Ba/F3), SK-MEL-28 and A375. Cell culture was performed using a medium suitable for each cell line.
(§2) In the meantime, MDA-MB-231 and A375 cells were seeded in a 96well plate at the density of 2×10^3/100 μl/well, which stood for a day for attachment. The culture fluid was eliminated. After removing the culture medium, the medium was replaced with the culture medium containing the compounds of the present invention at 3-times serially diluted 9 concentrations (0.0015-10 μM) and the DMSO control, followed by incubation in a 37° C. CO2 incubator for 72 hours. On the other hand, K-562 and Ba/F3-T315I cells were seeded in a 96-well plate at the density of 1×10^4/90 μl/well. The plate containing K-562 cells was added with the culture medium containing the compounds of the present invention at 3-times serially diluted 9 concentrations (0.015-100 μM) and the DMSO control (10 μl/well). The plate containing Ba/F3-T315I cells was added with the culture medium containing the compounds of the present invention at 5-times serially diluted 9 concentrations (0.000256-100 μM) and the DMSO control (10 μl/well). The final concentration was made 0-10 μM and then the cells were cultured in a 37° C. CO2 incubator for 72 hours.
(§3) A375, K-562 and Ba/F3-T315I cells were added with CCK-8 solution at the concentration of 10 μl/well, followed by orbital shaking for 30 seconds. Then, the cells were cultured in a 37° C. CO2 incubator for 2 hours. OD450 was measured by using a microplate reader. The OD value of the well treated with the culture medium and CCK-8 solution alone was subtracted from the OD value measured above, followed by calculation of IC50 using GraphPad Prism 6 software.

K562 = assay: as above; conditions: Homo sapiens, K562, 72 h
Procedure: as §1, §2, §3

T315I (Ba/F3) = target: T1, T315I (Ba/F3) (Homo sapiens, UniProt P00519, T315I, cells depend on it); assay: as above; conditions: read-out: T315I (Ba/F3) IC50
T1 construct: fused on or other part: P11274 (Breakpoint cluster region protein)
Procedure: as §1, §2, §3

MDA-MB-231 = assay: Real time cell proliferation, IncuCyte ZOOM, 72 hours; conditions: Homo sapiens, MDA-MB-231, 72 h
M-NFS-60 = assay: Cancer cell proliferation inhibition, CCK-8, 72 hours
Procedure: as §1
M-NFS-60 cell line was cultured in the complete growth medium prepared by adding 10% FBS, 0.05 mM 2-mercaptoethanol and 62 ng of human M-CSF to RPMI. When the confluence reached 80% in T-75 flask, the cells were collected in a 50 ml tube for seeding, followed by centrifugation at 800 rpm for 5 minutes. The cells were suspended in 10 mL of growth medium. The cell number was counted by using a hematocytometer to determine the necessary cell number and the medium volume for seeding. The cells were seeded in a 96-well plate at the density of 20000 cells/well (200 μL/well), followed by stabilization in a 37° C. CO2 incubator, while the compounds of the present invention were prepared. The compounds of the present invention were serially diluted with DMSO at the ratio of 1/3 with setting the maximum concentration at 1968 nM, which were loaded in a new V-bottom 96-well plate, resulting in the preparation of total 11 concentrations including the DMSO control. The cells that had been placed in the incubator were taken out, to which the compounds of the present invention were added (2 μl/well). The plate treated with the compounds was cultured in a 37° C. CO2 incubator for 72 hours. 72 hours later, the plate treated with the compounds was taken out, to which CCK-8 solution was treated (20 μl/well). After well mixing, the plate was further cultured in a 37° C. CO2 incubator for 2 hours. Then, OD450 was measured by using a microplate reader. To obtain accurate results, the wells displaying bubbles were eliminated from the measurement.

Huh7 = assay: Cancer cell proliferation inhibition, MTS assay, 72 hours; conditions: Homo sapiens, Huh-7
Procedure: as §1
(§4) Other cell lines were seeded in a 96-well plate containing the corresponding medium appropriate for each cell line at the density of 3,000 cells/well, followed by culture in a 5% CO2 and 37° C. incubator for 24 hours. The compounds of examples of the present invention were added to each well at the concentration of from the highest volume of 50 μM to every step of serial dilution. The solvent control, dimethylsulfoxide (DMSO), was treated at the same concentration of 0.05% (v/v) as the volume used for the treatment of the compounds above. Each cell line was cultured for 72 hours. To investigate the cell viability, the MTS and PMS (phenazine methosulfate) mixture provided in CellTiter 96® AQuous Non-Radioactive Cell Proliferation Assay Kit (Promega) was added to each cell culture medium, followed by additional culture at 37° C. for 2 hours. Then, OD450 was measured. Based on OD of the solvent control cells not treated with any compounds of the present invention, the cell proliferation inhibition rate was calculated according to the treatment concentration of each compound. At this time, the concentration of each compound that was able to inhibit cancer cell proliferation up to 50% was determined as IC50 (uM). IC50 of each compound was determined with three data sets and calculated by using Prism softwater (version 6.01, GraphPad).

RET (LC2/ad-CDC6) = assay: as above; conditions: 72 h
Procedure: as §1, §4

Structure (SMILES)	IC50 (A375) [nM]	IC50 (K562) [nM]	GI50 (T315I (Ba/F3)) [nM]	IC50 (MDA-MB-231) [nM]	IC50 (M-NFS-60) [nM]	IC50 (Huh7) [nM]	IC50 (RET (LC2/ad-CDC6)) [nM]
Cc1ccc(C(=O)Nc2ccc3cccnc3c2)cc1C#Cc1cnc2c(Nc3cnn(C)c3)cccn12 [Example 36, 4-methyl-3-((8-((1-methyl-1H-pyrazol-4-yl)amino)imidazo[1,2-a]pyridin-3-yl)ethynyl)-N-(quinolin-7-yl)benzamide]	> 10000	6	> 10000	> 10000	7.76	145	
COCCn1cc(Nc2cccn3c(C#Cc4cc(C(=O)Nc5ccc(CN6CCN(C)[C@H](C)C6)c(C(F)(F)F)c5)ccc4C)cnc23)cn1 [Example 40, (R)—N-(4-((3,4-dimethylpiperazin-1-yl)methyl)-3-(trifluoromethyl)phenyl)-3-((8-((1-(2-methoxyethyl)-1H-pyrazol-4-yl)amino)imidazo[1,2-a]pyridin-3-yl)ethynyl)-4-methylbenzamide]	97	8	33.5	230		101	10
COCCCn1cc(Nc2cccn3c(C#Cc4cc(C(=O)Nc5ccc(CN6CCN(C)[C@H](C)C6)c(C(F)(F)F)c5)ccc4C)cnc23)cn1 [Example 42, (R)—N-(4-((3,4-dimethylpiperazin-1-yl)methyl)-3-(trifluoromethyl)phenyl)-3-((8-((1-(3-methoxypropyl)-1H-pyrazol-4-yl)amino)imidazo[1,2-a]pyridin-3-yl)ethynyl)-4-methylbenzamide]	163	8	122	320		100	> 10
COCCCn1cc(Nc2cccn3c(C#Cc4cc(C(=O)Nc5ccc(CN6CCC(N(C)C)C6)c(C(F)(F)F)c5)ccc4C)cnc23)cn1 (stereo not drawn) [Example 43, N-(4-((3-(dimethylamino)pyrrolidin-1-yl)methyl)-3-(trifluoromethyl)phenyl)-3-((8-((1-(3-methoxypropyl)-1H-pyrazol-4-yl)amino)imidazo[1,2-a]pyridin-3-yl)ethynyl)-4-methylbenzamide]	341	16	59.7	190		98	> 10
COCCn1cc(Nc2cccn3c(C#Cc4cc(C(=O)Nc5cccc(C(F)(F)F)c5)ccc4C)cnc23)cn1 [Example 70]		< 1.5	26.1	1160	12.3	848	
Cc1ccc(C(=O)Nc2cccc(C(F)(F)F)c2)cc1C#Cc1cnc2c(Nc3cnn(CCN(C)C)c3)cccn12 [Example 74]		< 1.5	93.1	1120	21.4		

Next, values leading:

IC50 (A375) [nM]	IC50 (K562) [nM]	GI50 (T315I (Ba/F3)) [nM]	IC50 (MDA-MB-231) [nM]	IC50 (M-NFS-60) [nM]	IC50 (Huh7) [nM]	IC50 (RET (LC2/ad-CDC6)) [nM]	Structure (SMILES)
152	< 1	25	168	43.8		> 10	Cc1ccc(C(=O)Nc2ccc(CN3CCN(C)[C@@H](C)C3)c(C(F)(F)F)c2)cc1C#Cc1cnc2c(Nc3cnn(C)c3)cccn12 [Example 47, (S)—N-(4-((3,4-dimethylpiperazin-1-yl)methyl)-3-(trifluoromethyl)phenyl)-4-methyl-3-((8-((1-methyl-1H-pyrazol-4-yl)amino)imidazo[1,2-a]pyridin-3-yl)ethynyl)benzamide]
	< 1.5	170	386	62.7			Cc1ccc(C(=O)Nc2ccc(CN3CCN(C)CC3)c(C(F)(F)F)c2)cc1C#Cc1cnc2c(Nc3cc4n(n3)CCNC4)cccn12 [Example 66, 4-methyl-N-(4-((4-methylpiperazin-1-yl)methyl)-3-(trifluoromethyl)phenyl)-3-((8-((4,5,6,7-tetrahydropyrazolo[1,5-a]pyrazin-2-yl)amino)imidazo[1,2-a]pyridin-3-yl)ethynyl)benzamide]
	< 1.5	40.1	429	19.4	919		Cc1ccc(C(=O)Nc2cccc(C(F)(F)F)c2)cc1C#Cc1cnc2c(Nc3cc4n(n3)CCNC4)cccn12 [Example 67, 4-methyl-3-((8-((4,5,6,7-tetrahydropyrazolo[1,5-a]pyrazin-2-yl)amino)imidazo[1,2-a]pyridin-3-yl)ethynyl)-N-(3-(trifluoromethyl)phenyl)benzamide]
